What is called IC50 is the concentration at which inhibition is half-maximal. The EC50 is the concentration that produces a half-maximal response. The term AC50 denotes the midpoint of the concentration-response curve, whichever way the signal moves.

Active and inactive are the calls of the source. Bounds are passed on as bounds.

One experiment addresses Beta-lactamase (Salmonella choleraesuis (strain SC-B67), UniProt Q5J463).
Experiment [1] is described as follows: NIH-3T3 fibroblast cytotoxicity, dose response, cytotoxicity control, cell-based, fluorescence, Alamar Blue, secondary assay (AID 2327).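 Note: NIH-3T3 mouse fibroblasts cultured with fluconazole at 8 µg/mL.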 In kind it is functional. (In general: Resazurin is reduced to fluorescent resorufin, in cell work by metabolically active cells.)
A short description of experiment [2]: cells. It counts as functional, cell-based.
Experiment [3] in a line: cells. In kind it is functional, cell-based. This is another data set of the same source.
In experiment [4] the target is T1, Cysteine protease ATG4B (Homo sapiens, UniProt Q9Y4P1).
T1 sequence (Q9Y4P1 whole entry): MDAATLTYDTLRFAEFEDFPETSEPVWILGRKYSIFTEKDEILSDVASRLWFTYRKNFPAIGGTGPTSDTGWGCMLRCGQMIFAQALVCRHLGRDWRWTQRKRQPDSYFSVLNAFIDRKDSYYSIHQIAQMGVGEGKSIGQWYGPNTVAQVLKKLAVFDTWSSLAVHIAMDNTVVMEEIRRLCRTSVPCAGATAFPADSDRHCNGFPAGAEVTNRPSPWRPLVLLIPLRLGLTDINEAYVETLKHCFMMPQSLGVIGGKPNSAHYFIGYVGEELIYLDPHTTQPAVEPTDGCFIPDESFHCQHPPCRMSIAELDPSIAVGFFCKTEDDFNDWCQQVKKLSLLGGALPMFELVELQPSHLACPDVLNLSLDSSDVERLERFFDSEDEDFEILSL
It counts as functional.

The target of experiment [5] is T1, Cysteine protease ATG4B. As to the kind of experiment: ATG4B protease inhibitors, dose response, biochemical, fluorescence, set 2 (AID 588584). In kind it is functional.
The target of a further experiment is Ephrin type-A receptor 4 (Mus musculus, UniProt Q03137). Put plainly: inhibitors of EphA4 binding to KYL peptide, primary screen, biochemical, colorimetric, mouse EphA4 (AID 689). It counts as functional.
The target of experiment [6] is Induced myeloid leukemia cell differentiation protein Mcl-1 (Homo sapiens, UniProt Q07820). It counts as functional.
The target of another experiment is Cytochrome P450 3A4 (Homo sapiens, UniProt P08684).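 Note: CYP3A4 tested as one member of a cytochrome P450 panel screen.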
Chain of Cytochrome P450 3A4 (P08684 whole entry): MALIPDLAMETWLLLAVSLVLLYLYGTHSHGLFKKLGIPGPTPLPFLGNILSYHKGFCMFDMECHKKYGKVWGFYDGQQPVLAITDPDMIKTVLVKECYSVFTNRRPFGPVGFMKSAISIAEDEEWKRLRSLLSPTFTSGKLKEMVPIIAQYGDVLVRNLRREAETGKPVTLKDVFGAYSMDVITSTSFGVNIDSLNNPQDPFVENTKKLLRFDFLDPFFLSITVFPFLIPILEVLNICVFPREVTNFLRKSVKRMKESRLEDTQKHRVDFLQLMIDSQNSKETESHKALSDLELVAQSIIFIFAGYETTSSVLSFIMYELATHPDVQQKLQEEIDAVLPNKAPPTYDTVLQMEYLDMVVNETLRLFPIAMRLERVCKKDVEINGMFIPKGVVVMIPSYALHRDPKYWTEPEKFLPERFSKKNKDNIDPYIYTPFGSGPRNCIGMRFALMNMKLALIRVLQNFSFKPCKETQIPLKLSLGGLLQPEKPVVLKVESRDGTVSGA

Chain of Induced myeloid leukemia cell differentiation protein Mcl-1 (Q07820 whole entry): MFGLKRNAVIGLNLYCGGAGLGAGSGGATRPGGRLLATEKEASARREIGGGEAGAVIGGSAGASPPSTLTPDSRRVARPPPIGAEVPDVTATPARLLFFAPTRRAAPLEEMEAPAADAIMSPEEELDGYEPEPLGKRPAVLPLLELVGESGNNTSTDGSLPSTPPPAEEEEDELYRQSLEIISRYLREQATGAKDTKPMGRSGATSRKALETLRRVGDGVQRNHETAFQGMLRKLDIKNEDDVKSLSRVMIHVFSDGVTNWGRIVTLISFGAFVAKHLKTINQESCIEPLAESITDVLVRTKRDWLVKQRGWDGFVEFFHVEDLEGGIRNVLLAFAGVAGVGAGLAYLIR
Chain of Ephrin type-A receptor 4 (Q03137 whole entry): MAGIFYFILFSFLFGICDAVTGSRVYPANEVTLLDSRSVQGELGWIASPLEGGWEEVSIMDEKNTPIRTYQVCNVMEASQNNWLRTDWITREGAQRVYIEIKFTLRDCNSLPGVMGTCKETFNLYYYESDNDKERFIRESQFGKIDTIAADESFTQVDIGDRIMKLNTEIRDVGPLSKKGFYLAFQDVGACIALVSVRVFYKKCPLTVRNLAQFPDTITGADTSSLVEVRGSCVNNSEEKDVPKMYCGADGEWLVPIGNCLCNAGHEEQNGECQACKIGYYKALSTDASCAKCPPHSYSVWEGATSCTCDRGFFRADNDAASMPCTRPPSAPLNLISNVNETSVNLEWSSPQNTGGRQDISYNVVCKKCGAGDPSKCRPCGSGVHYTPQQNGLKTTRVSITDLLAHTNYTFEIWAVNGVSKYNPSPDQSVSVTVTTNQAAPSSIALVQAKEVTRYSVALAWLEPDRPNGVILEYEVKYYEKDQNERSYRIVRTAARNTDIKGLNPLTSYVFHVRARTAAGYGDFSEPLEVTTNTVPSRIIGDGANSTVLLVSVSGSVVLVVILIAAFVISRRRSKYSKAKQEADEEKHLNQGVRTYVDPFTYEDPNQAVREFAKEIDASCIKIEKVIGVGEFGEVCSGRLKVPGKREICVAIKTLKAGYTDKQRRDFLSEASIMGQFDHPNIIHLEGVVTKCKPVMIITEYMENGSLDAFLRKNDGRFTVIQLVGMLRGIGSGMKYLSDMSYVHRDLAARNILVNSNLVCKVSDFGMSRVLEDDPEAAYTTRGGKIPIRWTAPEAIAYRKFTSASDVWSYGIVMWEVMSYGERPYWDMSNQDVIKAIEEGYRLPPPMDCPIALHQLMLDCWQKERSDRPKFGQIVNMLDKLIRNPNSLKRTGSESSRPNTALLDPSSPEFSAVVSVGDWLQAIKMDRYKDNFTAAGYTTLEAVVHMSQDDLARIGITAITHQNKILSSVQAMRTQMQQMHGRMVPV
Chain of Beta-lactamase (Q5J463 whole entry): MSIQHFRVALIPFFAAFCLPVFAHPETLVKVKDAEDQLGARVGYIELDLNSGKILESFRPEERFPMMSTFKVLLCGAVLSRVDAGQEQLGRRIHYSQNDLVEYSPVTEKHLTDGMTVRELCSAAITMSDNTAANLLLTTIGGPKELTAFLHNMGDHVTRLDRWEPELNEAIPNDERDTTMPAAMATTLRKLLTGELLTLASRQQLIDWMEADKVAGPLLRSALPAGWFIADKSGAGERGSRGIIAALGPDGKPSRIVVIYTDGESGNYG

For the molecule `O=C1CCN2C=Nc3cccc4ccc1c2c34`, the IC50 on Beta-lactamase is 7.55 µM (active).

As for `Oc1ccc2ccccc2c1/C=N/Nc1nnc(-c2ncc[nH]2)c2ccccc12`, the EC50 is 11.4 µM (active) in [1], 82.8 µM (active) in “cells [2]” and > 350 µM (not active) in “cells [3]”. Further, the IC50 is 2.53 µM (active) on Cysteine protease ATG4B [4] and 5.4 µM (active) on Cysteine protease ATG4B [5].

As to `CC(C)C(C(=O)O)N1C(=O)/C(=C/C=C/c2ccco2)SC1=S` (centres undefined), the 50% inhibitory concentration (IC50) at Ephrin type-A receptor 4 is 5.26 µM (active); in experiment [6], > 54 µM (active). Further, the AC50 at Cytochrome P450 3A4 was 31.6 µM (inconclusive).
